Assay results reported in the supplement of paper PMC11208160.

Assay: recombinant barcode read abundance after kanamycin selection (control-corrected) (log10(CPM+1)); higher = more efficient recombination; sequences stand for … in AGTGCAGAGAAAATCGGCCAGTTTTCTCTGCCTGCAGTCCGCATGCCGT…AGATTTATGCAGCGGACTGCCTTTCTCCCAAAGTGATAAACCGGACAGTATCATGGACCGGTTTTCCCGGTAATCCGTATTTGCAAGGTTGGTTTCACT; site = the 11-nt target
Procedure, shortened: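 Values are log10(CPM+1) from a pooled E. coli screen of targets paired with IS621 bridge RNA target-binding loops. Recombination efficiency here means counts per million of recombinant-junction barcodes, averaged and control-corrected. Plates were chloramphenicol/ampicillin LB agar for the control and chloramphenicol/ampicillin/kanamycin with 0.1 mM IPTG, two replicates each.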
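Further: IS621 recombinase and bridge RNA in Escherichia coli cells.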

Row | Sequence | recombinant barcode read abundance (log10)
1 | ACCTGTCCTTGGGTTCTAACCTGTTGCCT (site ACCTGCCCTAG) | 0.0321
2 | GACGTAGCTTGGGTTCTAACCTGTTGCCT (site GTCGTAGCTAG) | 0.279
3 | TATGTAGCTTGGGTTCTAACCTGTTGCCT (site TATGTAGCTCG) | 0.353
4 | ATACGTACTTGGGTTCTAACCTGTTGCCT (site TTACGTACTAG) | 0.0363
5 | CCAAGGACTTGGGTTCTAACCTGTTGCCT (site CCAAGGACTAG) | 0.348
6 | TGCCTATCTTGGGTTCTAACCTGTTGCCT (site TCCCTATCTAG) | 0.0417
7 | GACCTGGCTTGGGTTCTAACCTGTTGCCG (site GACCTGACTTG) | 0.176
8 | GGTGCTCCTTGGGTTCTAACCTGTTGCAC (site GGTGCTCCTGT) | 0.684
9 | GATGCTTCTTGGGTTCTAACCTGTTGCTT (site GATGCTTCTAA) | 0.223
10 | CTAGACTCTTGGGTTCTAACCTGTTGCTA (site CTAGACTCTCA) | 0.234
11 | CGTGCGACTTGGGTTCTAACCTGTTGCAT (site CGTCCGACTAT) | 0.0641
12 | TGTAGGACTTGGGTTCTAACCTGTTGCCT (site GGTAGGACTAG) | 0.0264
13 | ACAAGAGCTTGGGTTCTAACCTGTTGCCT (site ACCAGAGCTAG) | 0.266
14 | ACGCGAGCTTGGGTTCTAACCTGTTGCAG (site ACGCGAGCTCG) | 0.192
15 | CCAGAGTCTTGGGTTCTAACCTGTTGCCA (site CCAGAGTCTTG) | 1.22
16 | GGGTCGGCTTGGGTTCTAACCTGTTGCGC (site GGGTCGGCTCC) | 0.0276
17 | TGCGCGACTTGGGTTCTAACCTGTTGCCT (site TGCGCTACTAG) | 0.0869
18 | TCGAGTGCTTGGGTTCTAACCTGTTGCCT (site TCGAGTACTAG) | 0.187
19 | AATGATTCTTGGGTTCTAACCTGTTGCGT (site GGGCCGGCTCG) | 0.433
20 | GAGTGGCCTTGGGTTCTAACCTGTTGCTT (site GAGTGGCCTAA) | 1.54
21 | TCCCGTCCTTGGGTTCTAACCTGTTGCCT (site TCCCTTCCTAG) | 0.196
22 | GAGTTACCTTGGGTTCTAACCTGTTGCGT (site GAGTTGCCTAC) | 0.229

Row | Sequence | recombinant barcode read abundance (log10)
23 | AAGACCTCTTGGGTTCTAACCTGTTGCTT (site AAGCCCTCTAA) | 0.139
24 | TAGCCGACTTGGGTTCTAACCTGTTGCTT (site TAGGCGACTAA) | 0.309
25 | ACAGAGGCTTGGGTTCTAACCTGTTGCCG (site ACTCAGGCTCG) | 0.155
26 | TAGGAACCTTGGGTTCTAACCTGTTGCCT (site GAGGAACCTAG) | 0.0651
27 | GCCCAATCTTGGGTTCTAACCTGTTGCCT (site GCCCCATCTAG) | 0.115
28 | TCTACGTCTTGGGTTCTAACCTGTTGCCT (site TCTACTTCTAG) | 0.126
29 | ATCCAGGCTTGGGTTCTAACCTGTTGCGG (site ATCCAGGCTCC) | 2.07
30 | TCGAATCCTTGGGTTCTAACCTGTTGCCT (site TCGAACCCTAG) | 0.0582
31 | GAATATTCTTGGGTTCTAACCTGTTGCCT (site GATTATTCTAG) | 0.27
32 | TTGATAGCTTGGGTTCTAACCTGTTGCTA (site ACCGCGTCTAT) | 0.174
33 | AACACTGCTTGGGTTCTAACCTGTTGCCT (site AACACTGCTAG) | 1.09
34 | GTCAGCCCTTGGGTTCTAACCTGTTGCTG (site GACAGCCCTCA) | 0.379
35 | TACTTCTCTTGGGTTCTAACCTGTTGCCT (site TACTTCCCTAC) | 0.211
36 | TACCTATCTTGGGTTCTAACCTGTTGCCT (site TCCCTATCTAG) | 0.00692
37 | TAATGAACTTGGGTTCTAACCTGTTGCCT (site TAATGAACTAG) | 0.32
38 | TGAGTCCCTTGGGTTCTAACCTGTTGCAG (site AAGTGGTCTTA) | 0.149
39 | CTCGGAACTTGGGTTCTAACCTGTTGCCT (site CTCGGAACTAG) | 0.374
40 | CGTGAAGCTTGGGTTCTAACCTGTTGCCT (site CGTGAAGCTAG) | 0.795
41 | GGTCGAGCTTGGGTTCTAACCTGTTGCCT (site GGTCGCGCTAG) | 0.0193
42 | ACCAATGCTTGGGTTCTAACCTGTTGCCT (site ACCAATTCTAG) | 0.163
43 | GACGCCACTTGGGTTCTAACCTGTTGCCT (site GACGCCACTAG) | 0.425
44 | CATAGATCTTGGGTTCTAACCTGTTGCTT (site CAGAGATCTAA) | 0.0253

Row | Sequence | recombinant barcode read abundance (log10)
45 | TGATCTCCTTGGGTTCTAACCTGTTGCTT (site TGATCTCCTAA) | 0.0107
46 | TCCCAGTCTTGGGTTCTAACCTGTTGCTT (site TCCCAGTCTAT) | 1.19
47 | TATAAAACTTGGGTTCTAACCTGTTGCCT (site TATAGAACTAG) | 0.0357
48 | AATGGGTCTTGGGTTCTAACCTGTTGCCT (site AATGGGGCTAG) | 0.04
49 | AGTCAGCCTTGGGTTCTAACCTGTTGCCT (site AGTGAGCCTAG) | 0.318
50 | CCTCGCACTTGGGTTCTAACCTGTTGCCT (site CCTCGCACTAG) | 0.458
51 | AAGGTTCCTTGGGTTCTAACCTGTTGCTA (site AAGGTCCCTTG) | 0.0242
52 | GAGTGCCCTTGGGTTCTAACCTGTTGCTT (site GAGTGCCCTAA) | 0.78
53 | TCAAATTCTTGGGTTCTAACCTGTTGCCT (site TCAGATTCTAG) | 0.108
54 | CCAGAGTCTTGGGTTCTAACCTGTTGCCA (site CCAGAGTCTCG) | 0
55 | TTCGCGCCTTGGGTTCTAACCTGTTGCCT (site TTCCCGCCTAG) | 0.144
56 | TGGCCCTCTTGGGTTCTAACCTGTTGCTC (site TGGCCCTCTAA) | 0.0244
57 | TGGCCCTCTTGGGTTCTAACCTGTTGCTC (site TGGCCCTCTCA) | 0.304
58 | GAGTGGCCTTGGGTTCTAACCTGTTGCAT (site GAGTGGCCTAG) | 0.318
59 | CGCCCTCCTTGGGTTCTAACCTGTTGCAT (site CGCCATCCTAT) | 0.0837
60 | AGGGGAGCTTGGGTTCTAACCTGTTGCCT (site AGGGGAGCTAG) | 1.61
61 | ACCGAGTCTTGGGTTCTAACCTGTTGCCT (site AACGAGTCTAG) | 0.202
62 | TCTAAACCTTGGGTTCTAACCTGTTGCAT (site TCTAAACCTAT) | 0.197
63 | ACCGGTACTTGGGTTCTAACCTGTTGCCT (site ACCTGTACTAG) | 0.0135
64 | CGGAAGGCTTGGGTTCTAACCTGTTGCCT (site CGGAAGACTAG) | 0.036
65 | GCAATGTCTTGGGTTCTAACCTGTTGCCT (site GTAATGTCTAG) | 0.443
66 | GACATCTCTTGGGTTCTAACCTGTTGCCT (site GACATCTCTAG) | 1.19
